Laboratory results from patent publication US12281057B2 (VERTEX PHARMACEUTICALS INCORPORATED, priority 2017, dated 2025).
Like-named read-outs stand apart in the source and are kept apart here.

Target: truncated form of human NaV 1.8 with full channel activity (Homo sapiens, UniProt Q9Y5Y9)
Assay: E-VIPR Assay Method A for detecting and measuring Nav inhibition (HEK cells, membrane potential FRET dyes, electrical stimulation)
Type: cell-based
Settings: HEK cells expressing human NaV 1.8, HS (human serum) in compound loading buffer, 11 point dose response, top dose 3 μM
Method in brief: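 HEK cells expressing truncated human NaV1.8, loaded with CC2-DMPE/DiSBAC6(3) FRET dyes, incubated 30 min at room temp with compound (0.625% DMSO), then electrically stimulated (1.25 A biphasic, 10 Hz, 10 s). Inhibition from 460/580 nm ratio Rf/Ri, normalised to positive and DMSO controls.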

[1] = Table 20A, read-out: Nav 1.8 MedChem Optical Assay EVIPR Assay Method A HS IC50
[2] = Table 20, read-out: Nav 1.8 MedChem Optical Assay EVIPR Assay Method A HS IC50

truncated form of human NaV 1.8 with full channel activity, sequence (Q9Y5Y9 126-1722 limits assumed): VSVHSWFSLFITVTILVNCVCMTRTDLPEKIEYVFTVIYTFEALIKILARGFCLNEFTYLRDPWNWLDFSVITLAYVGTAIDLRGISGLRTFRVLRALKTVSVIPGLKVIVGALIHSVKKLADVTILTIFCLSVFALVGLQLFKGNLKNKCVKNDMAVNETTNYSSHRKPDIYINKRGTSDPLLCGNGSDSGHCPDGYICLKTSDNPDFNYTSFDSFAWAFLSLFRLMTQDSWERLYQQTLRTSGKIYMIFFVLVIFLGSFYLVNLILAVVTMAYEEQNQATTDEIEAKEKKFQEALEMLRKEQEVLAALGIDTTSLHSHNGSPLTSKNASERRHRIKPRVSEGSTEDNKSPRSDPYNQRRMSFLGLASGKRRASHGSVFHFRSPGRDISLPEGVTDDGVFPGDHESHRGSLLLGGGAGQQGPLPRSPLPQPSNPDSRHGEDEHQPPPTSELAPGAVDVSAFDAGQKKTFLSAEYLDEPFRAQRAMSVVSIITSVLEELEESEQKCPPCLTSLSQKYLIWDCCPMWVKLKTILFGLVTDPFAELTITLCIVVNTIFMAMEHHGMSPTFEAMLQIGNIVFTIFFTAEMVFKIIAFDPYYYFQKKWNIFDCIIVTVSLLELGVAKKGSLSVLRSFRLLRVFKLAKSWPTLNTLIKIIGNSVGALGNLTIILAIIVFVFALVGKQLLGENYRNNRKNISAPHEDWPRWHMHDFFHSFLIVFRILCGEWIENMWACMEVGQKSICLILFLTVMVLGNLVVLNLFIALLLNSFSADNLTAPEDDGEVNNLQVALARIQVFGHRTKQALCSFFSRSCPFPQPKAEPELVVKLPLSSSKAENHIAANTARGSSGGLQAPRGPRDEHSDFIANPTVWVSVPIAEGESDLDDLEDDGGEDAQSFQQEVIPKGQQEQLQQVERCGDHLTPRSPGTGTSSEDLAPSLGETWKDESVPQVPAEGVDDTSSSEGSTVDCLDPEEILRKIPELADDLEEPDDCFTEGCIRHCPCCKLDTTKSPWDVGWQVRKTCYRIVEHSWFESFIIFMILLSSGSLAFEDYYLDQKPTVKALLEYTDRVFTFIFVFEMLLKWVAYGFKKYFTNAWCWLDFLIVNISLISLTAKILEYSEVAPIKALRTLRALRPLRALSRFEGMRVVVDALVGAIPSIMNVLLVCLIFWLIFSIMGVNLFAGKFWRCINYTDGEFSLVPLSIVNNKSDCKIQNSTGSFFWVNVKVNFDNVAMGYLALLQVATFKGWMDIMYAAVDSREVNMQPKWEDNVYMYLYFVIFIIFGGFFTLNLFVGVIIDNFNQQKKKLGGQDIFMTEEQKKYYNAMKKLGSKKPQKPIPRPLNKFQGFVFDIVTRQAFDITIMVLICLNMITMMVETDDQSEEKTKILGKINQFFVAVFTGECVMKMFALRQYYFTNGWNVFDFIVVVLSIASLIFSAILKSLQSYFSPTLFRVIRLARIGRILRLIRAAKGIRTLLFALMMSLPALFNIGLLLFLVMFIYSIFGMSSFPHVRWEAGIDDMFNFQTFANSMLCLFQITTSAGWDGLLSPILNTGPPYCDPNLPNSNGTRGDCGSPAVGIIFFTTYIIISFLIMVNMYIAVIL

Compound | IC50 [1] | IC50 [2]
COc1cc(OC(F)(F)F)ccc1Oc1ccc(C(F)(F)C(F)(F)F)cc1C(=O)Nc1ccnc(C(N)=O)c1 [Compound 81] | 38 nM | –
NC(=O)c1cc(NC(=O)c2c(Oc3ccc(OC(F)(F)F)cc3)cnc(C(F)(F)F)c2F)ccn1 [Compound 61, N-(2-Carbamoyl-4-pyridyl)-3-fluoro-5-[4-(trifluoromethoxy)phenoxy]-2-(trifluoromethyl)pyridine-4-carboxamide] | 38 nM | –
NC(=O)c1cc(NC(=O)c2c(Oc3ccc(OC(F)(F)F)cc3)ccc(C3CC3)c2F)ccn1 [Compound 72, 4-[[3-Cyclopropyl-2-fluoro-6-[4-(trifluoromethoxy)phenoxy]benzoyl]amino]pyridine-2-carboxamide] | 175 nM | –
NC(=O)c1cc(NC(=O)c2c(F)c(C(F)(F)F)cc(OCc3ccccc3)c2Oc2ccc(OC(F)(F)F)cc2)ccc1F [Compound 217, 5-Benzyloxy-N-(3-carbamoyl-4-fluoro-phenyl)-2-fluoro-6-[4-(trifluoromethoxy)phenoxy]-3-(trifluoromethyl)benzamide] | 1100 nM | –
COc1cc(OC(F)(F)F)ccc1Oc1ccc(C(F)(F)C(F)(F)F)cc1C(=O)Nc1ccc(F)c(C(N)=O)c1 [Compound 19, N-(3-carbamoyl-4-fluoro-phenyl)-2-[2-methoxy-4-(trifluoromethoxy)phenoxy]-5-(1,1,2,2,2-pentafluoroethyl)benzamide] | – | 10 nM
COc1cc(OC(F)(F)F)ccc1Oc1ccc(C(F)(F)F)c(OC)c1C(=O)Nc1ccc(F)c(C(N)=O)c1 [Compound 92, N-(3-Carbamoyl-4-fluoro-phenyl)-2-methoxy-6-[2-methoxy-4-(trifluoromethoxy)phenoxy]-3-(trifluoromethyl)benzamide] | 2 nM | –
COc1cc(OC(F)(F)F)ccc1Oc1cnc(C(F)(F)F)cc1C(=O)Nc1ccc(F)c(C(N)=O)c1 [Compound 68, N-(3-Carbamoyl-4-fluoro-phenyl)-5-[2-methoxy-4-(trifluoromethoxy)phenoxy]-2-(trifluoromethyl)pyridine-4-carboxamide] | 21 nM | –
NC(=O)c1cc(NC(=O)c2c(Oc3ccc(OC(F)(F)F)cc3)ccc(C(F)(F)F)c2F)ccc1Cl [Compound 134, N-(3-carbamoyl-4-chloro-phenyl)-2-fluoro-6-[4-(trifluoromethoxy)phenoxy]-3-(trifluoromethyl)benzamide] | 68 nM | –
[2H]C([2H])([2H])c1c(Oc2ccc(C(F)(F)F)c(F)c2C(=O)Nc2ccnc(C(N)=O)c2)ccc(OC(F)(F)F)c1F [Compound 232, 4-[[2-Fluoro-6-[3-fluoro-2-(trideuteriomethyl)-4-(trifluoromethoxy)phenoxy]-3-(trifluoromethyl)benzoyl]amino]pyridine-2-carboxamide] | 17 nM | –
[2H]C([2H])([2H])Oc1c(Oc2ccc(C(F)(F)F)c(F)c2C(=O)Nc2ccc(C(=O)NC)nc2)ccc(OC(F)(F)F)c1F [Compound 229, 5-[[2-Fluoro-6-[3-fluoro-2-(trideuteriomethoxy)-4-(trifluoromethoxy)phenoxy]-3-(trifluoromethyl)benzoyl]amino]-N-methyl-pyridine-2-carboxamide] | 47 nM | –
COc1cc(OC(F)(F)F)ccc1Oc1cncc(F)c1C(=O)Nc1cc(C(N)=O)ncc1C [Compound 151, 4-[[3-Fluoro-5-[2-methoxy-4-(trifluoromethoxy)phenoxy]pyridine-4-carbonyl]amino]-5-methyl-pyridine-2-carboxamide] | 520 nM | –
COc1cc(OC(F)(F)F)ccc1Oc1cc(Cl)c(C)c(F)c1C(=O)Nc1ccnc(C(N)=O)c1 [Compound 201, 4-[[4-Chloro-2-fluoro-6-[2-methoxy-4-(trifluoromethoxy)phenoxy]-3-methyl-benzoyl]amino]pyridine-2-carboxamide] | 1 nM | –
[2H]C([2H])([2H])Oc1cc(OC(F)(F)F)ccc1Oc1cc(C(F)(F)F)cc(C(F)(F)F)c1C(=O)Nc1ccc(C(N)=O)nc1 [Compound 176, 5-[[2-[2-(Trideuteriomethoxy)-4-(trifluoromethoxy)phenoxy]-4,6-bis(trifluoromethyl)benzoyl]amino]pyridine-2-carboxamide] | 190 nM | –
COc1cc(OC(F)(F)F)ccc1Oc1cc(C2CC2)c(C(F)(F)F)cc1C(=O)Nc1ccnc(C(N)=O)c1 [Compound 125, 4-[[4-Cyclopropyl-2-[2-methoxy-4-(trifluoromethoxy)phenoxy]-5-(trifluoromethyl)benzoyl]amino]pyridine-2-carboxamide] | 34 nM | –
[2H]C([2H])([2H])Oc1c(Oc2ccc(C(F)F)c(F)c2C(=O)Nc2ccnc(C(N)=O)c2)ccc(OC(F)(F)F)c1F [Compound 235, 4-[[3-(Difluoromethyl)-2-fluoro-6-[3-fluoro-2-(trideuteriomethoxy)-4-(trifluoromethoxy)phenoxy]benzoyl]amino]pyridine-2-carboxamide] | 5 nM | –
COc1cc(OC(F)(F)F)ccc1Oc1ccc(C(F)(F)F)c(F)c1C(=O)Nc1ccc(C(N)=O)cc1F [Compound 82, N-(4-carbamoyl-2-fluoro-phenyl)-2-fluoro-6-[2-methoxy-4-(trifluoromethoxy)phenoxy]-3-(trifluoromethyl)benzamide] | 92 nM | –
COc1cc(OC(F)(F)F)ccc1Oc1cc(Cl)cc(F)c1C(=O)Nc1ccc(C(N)=O)nc1 [Compound 185, 5-[[4-Chloro-2-fluoro-6-[2-methoxy-4-(trifluoromethoxy)phenoxy]benzoyl]amino]pyridine-2-carboxamide] | 66 nM | –

More lines, now with the values ahead:

IC50 [1] | IC50 [2] | Compound
54 nM | – | NC(=O)c1ccc(NC(=O)c2c(Oc3ccc(OC(F)(F)F)cc3)ccc(C(F)(F)F)c2F)cc1 [Compound 264, N-(4-carbamoylphcnyl)-2-fluoro-6-(4-(trifluoromethoxy)phenoxy)-3-(trifluoromethyl)benzamide]
53 nM | – | NC(=O)c1cc(NC(=O)c2c(Oc3ccc(OC(F)(F)F)cc3)ccc(Cl)c2F)ccn1 [Compound 70, 4-[[3-Chloro-2-fluoro-6-[4-(trifluoromethoxy)phenoxy]benzoyl]amino]pyridine-2-carboxamide]
12 nM | – | [2H]C([2H])([2H])Oc1c(Oc2ccc(C(F)F)c(F)c2C(=O)Nc2cc(C(N)=O)ncc2C)ccc(OC(F)(F)F)c1F [Compound 237, 4-[[3-(Difluoromethyl)-2-fluoro-6-[3-fluoro-2-(trideuteriomethoxy)-4-(trifluoromethoxy)phenoxy]benzoyl]amino]-5-methyl-pyridine-2-carboxamide]
120 nM | – | NC(=O)c1cc(NC(=O)c2c(Oc3ccc(OC(F)(F)F)cc3)ccc3c2CCC3(F)F)ccn1 [Compound 191, 4-[[1,1-Difluoro-5-[4-(trifluoromethoxy)phenoxy]indane-4-carbonyl]amino]pyridine-2-carboxamide]
– | 2 nM | COc1c(Oc2ccc(C(F)(F)F)c(F)c2C(=O)Nc2ccnc(C(N)=O)c2)ccc(OC(F)(F)F)c1F [Compound 26, 4-[[2-fluoro-6-[3-fluoro-2-methoxy-4-(trifluoromethoxy)phenoxy]-3-(trifluoromethyl)benzoyl]amino]pyridine-2-carboxamide]
– | 3 nM | [2H]C([2H])([2H])Oc1cc(OC(F)(F)F)ccc1Oc1ccc(C(F)(F)F)c(F)c1C(=O)Nc1ccnc(C(N)=O)c1 [Compound 6, 4-[[2-fluoro-6-[2-(trideuteriomethoxy)-4-(trifluoromethoxy)phenoxy]-3-(trifluoromethyl)benzoyl]amino]pyridine-2-carboxamide]
150 nM | – | COc1cc(OC(F)(F)F)ccc1Oc1ccc(C(F)(F)F)c(OC)c1C(=O)Nc1ccc(C(N)=O)cn1 [Compound 205, 6-[[2-Methoxy-6-[2-methoxy-4-(trifluoromethoxy)phenoxy]-3-(trifluoromethyl)benzoyl]amino]pyridine-3-carboxamide]
400 nM | – | COc1cc(OC(F)(F)F)ccc1Oc1cc(C(F)(F)F)ncc1C(=O)Nc1ccc(C)c(C(N)=O)c1 [Compound 238, N-(3-carbamoyl-4-methyl-phenyl)-4-[2-methoxy-4-(trifluoromethoxy)phenoxy]-6-(trifluoromethyl)pyridine-3-carboxamide]
– | 9 nM | NC(=O)c1cc(NC(=O)c2c(Oc3ccc(OC(F)(F)F)c(F)c3)ccc(C(F)(F)F)c2F)ccc1F [Compound 18, N-(3-carbamoyl-4-fluoro-phenyl)-2-fluoro-6-[3-fluoro-4-(trifluoromethoxy)phenoxy]-3-(trifluoromethyl)benzamide]
5 nM | – | [2H]C([2H])([2H])Oc1c(Oc2ccc(Cl)c(F)c2C(=O)Nc2ccnc(C(N)=O)c2)ccc(OC(F)(F)F)c1F [Compound 220, 4-[[3-Chloro-2-fluoro-6-[3-fluoro-2-(trideuteriomethoxy)-4-(trifluoromethoxy)phenoxy]benzoyl]amino]pyridine-2-carboxamide]
87 nM | – | COc1cc(OC(F)(F)F)ccc1Oc1cc(C(F)(F)F)ccc1C(=O)Nc1ccc(F)c(C(N)=O)c1 [Compound 27, N-(3-Carbamoyl-4-fluoro-phenyl)-2-[2-methoxy-4-(trifluoromethoxy)phenoxy]-4-(trifluoromethyl)benzamide]
51 nM | – | NC(=O)c1cc(NC(=O)c2c(Oc3ccc(F)cc3)ccc(C(F)(F)F)c2F)ccn1 [Compound 50, 4-[[2-fluoro-6-(4-fluorophenoxy)-3-(trifluoromethyl)benzoyl]amino]pyridine-2-carboxamide]
23 nM | – | NC(=O)c1cc(NC(=O)c2c(Oc3ccc(OC(F)(F)F)cc3)ccc(Cl)c2F)ccc1F [Compound 73, N-(3-Carbamoyl-4-fluoro-phenyl)-3-chloro-2-fluoro-6-[4-(trifluoromethoxy)phenoxy]benzamide]
